What all share (format): cell-based
The test system of experiment [1] is human hepatocellular carcinoma cell line SNU398. As to the kind of experiment: Caspase cascade activation (EC50), SNU398. The following applies: Homo sapiens, SNU-398; SNU398 cells; caspase cascade activation; read-out: caspase potency (EC50) SNU398. The essentials: (§1)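 48 h compound exposure (0.016–10 μM final) at 37 °C, 5% CO2; then DEVD-R110 substrate in lysolecithin/DTT/PIPES pH 7.2 buffer, 3 h RT. Fluorescence ex485/em530; net RFU = T=3 h minus control T=0; ratio to control; sigmoidal fit → EC50 (nM).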

The test system of experiment [2] is human B cell lymphoblastoid cell line Ramos. As to the kind of experiment: Caspase cascade activation (EC50), Ramos. To be noted: Homo sapiens, RAMOS cells, read-out: caspase potency (EC50) RAMOS. The essentials:
as §1

Experiment [3] has as its system human colon carcinoma cell line HCT116. As to the kind of experiment: Caspase cascade activation (EC50), HCT116. The following applies: Homo sapiens, HCT-116; HCT116 cells; caspase cascade activation; read-out: caspase potency (EC50) HCT116. The essentials: as §1
The test system of experiment [4] is human breast cancer cell line T-47D. Description: Caspase cascade activation (EC50), T-47D. The following applies: Homo sapiens; T47D cells; caspase cascade activation; read-out: caspase potency (EC50) T47D. The essentials:
as §1

In experiment [5] the test system is human lymphoma cell line Raji. Description: Caspase cascade activation (EC50), Raji. To be noted: Homo sapiens, RAJI cells, read-out: caspase potency (EC50) RAJI. An outline of the steps:
as §1

Experiment [6] deals with human colon carcinoma cell line HCT116. Description: Inhibition of cell proliferation (GI50), HCT116. The following applies: Homo sapiens; HCT 116 cells, 48 h, CellTiter-Glo. As for the experimental part: (§2) Human breast cancer cell lines T-47D, human hepatocellular carcinoma cell line SNU398, human colon carcinoma cell line HCT116, human lung cancer cell line H1299, human leukemia cell line K562, human lymphoma cell line Raji, human B cell lymphoblastoid cell line Ramos, and human Burkitt's lymphoma cell line Namalwa were grown and harvested as in Example 100. An aliquot of […] of cells (4.4×10^4 cells/mL) was added to a well of a 96-well microtiter plate containing 5 μL of a 10% DMSO in RPMI-1640 media solution containing 10 nM to 100 μM of 3-(2-chlorophenyl)-6-(3,4-methylenedioxyphenyl)-7H-[1,2,4]triazolo[3,4-b][1,3,4]thiadiazine (1 nM to 10 μM final). An aliquot of 45 μL of cells was added to a well of a 96-well microtiter plate containing 5 μL of a 10% DMSO in RPMI-1640 media solution without compound as the control sample for maximal cell proliferation (LMax). The samples were mixed by agitation and then incubated at 37° C. for 48 h in a 5% CO2-95% humidity incubator. After incubation, the samples were removed from the incubator and 25 μL of CellTiter-Glo™ reagent (Promega) was added. The samples were mixed by agitation and incubated at room temperature for 10-15 min. Plates were then read using a luminescent plate reader (Model SPECTRAfluor Plus, Tecan) to give Ltest values.
(§3) The samples were mixed by agitation and then incubated at 37° C. for 0.5 h in a 5% CO2-95% humidity incubator. After incubation, the samples were removed from the incubator and 25 μL of CellTiter-Glo™ reagent (Promega) was added. The samples were mixed by agitation and incubated at […] 10-15 min at room temperature in a 5% CO2-95% humidity incubator. Fluorescence was read as above, (LStart) defining luminescence for initial cell number used as baseline in GI50 determinations.
(§4) Calculation: GI50 (dose for 50% inhibition of cell proliferation) is the concentration where [(Ltest−LStart)/(LMax−LStart)]=0.5.
On the technique in general: Cellular ATP, detected with luciferase, serves as a proxy for viable cell number.

Experiment [7] concerns human B cell lymphoblastoid cell line Ramos. As to the kind of experiment: Inhibition of cell proliferation (GI50), Ramos. The following applies: Homo sapiens; Ramos cells, 48 h, CellTiter-Glo. As for the experimental part: as §2, §3, §4
Experiment [8] relates to human leukemia cell line K562. Description: Inhibition of cell proliferation (GI50), K562. The following applies: Homo sapiens; K562 cells, 48 h, CellTiter-Glo. As for the experimental part:
as §2, §3, §4

The test system of experiment [9] is human Burkitt's lymphoma cell line Namalwa. As to the kind of experiment: Caspase cascade activation (EC50), Namalwa. To be noted: Homo sapiens, Burkitts lymphoma cell; Namalwa cells; caspase cascade activation; read-out: caspase potency (EC50) Namalwa. An outline of the steps:
as §1

Experiment [10] has as its system human lymphoma cell line Raji. Description: Inhibition of cell proliferation (GI50), Raji. To be noted: Homo sapiens; Raji cells, 48 h, CellTiter-Glo. As for the experimental part:
as §2, §3, §4

The subject of experiment [11] is human Burkitt's lymphoma cell line Namalwa. As to the kind of experiment: Inhibition of cell proliferation (GI50), Namalwa. To be noted: Homo sapiens, Burkitts lymphoma cell; Namalwa cells, 48 h, CellTiter-Glo. On the procedure:
as §2, §3, §4

In experiment [12] the test system is human cancer cell line H1299. Description: Caspase cascade activation (EC50), H1299. To be noted: NCI-H1299, H1299 cells, read-out: caspase potency (EC50) H1299. As for the experimental part: Human breast cancer cell lines T-47D, human hepatocellular carcinoma cell line SNU398, human colon carcinoma cell line HCT116, human cancer cell line H1299, human Burkitt's lymphoma cell line Namalwa, human lymphoma cell line Raji, and human B cell lymphoblastoid cell line Ramos were grown according to media component mixtures designated by American Type Culture Collection+10% FCS (Invitrogen Corporation), in a 5% CO2-95% humidity incubator at 37° C. T-47D and H1299 cells were maintained at a cell density between 50 and 80% confluency at a cell density of 0.1 to 0.6×10^6 cells/mL. Cells were harvested at 600×g and resuspended at 0.65×10^6 cells/mL into appropriate media+10% FCS. An aliquot of 22.5 μL of cells was added to a well of a 384-well microtiter plate containing 2.5 μL of a 10% DMSO in RPMI-1640 media solution containing 0.16 to 100 μM of 3-(2-chlorophenyl)-6-(3,4-methylenedioxyphenyl)-7H-[1,2,4]triazolo[3,4-b][1,3,4]thiadiazine or other test compound (0.016 to 10 μM final). An aliquot of 22.5 μL of cells was added to a well of a 384-well microtiter plate containing 2.5 μL of a 10% DMSO in RPMI-1640 media solution without test compound as the control sample. The samples were mixed by agitation and then incubated at 37° C. for 48 h in a 5% CO2-95% humidity incubator. After incubation, the samples were removed from the incubator and 25 μL of a solution containing 14 μM of N—(Ac-DEVD)-N′-ethoxycarbonyl-R110 (SEQ ID No.:1) fluorogenic substrate (Cytovia, Inc.; WO99/18856), 20% sucrose (Sigma), 20 mM DTT (Sigma), 200 mM NaCl (Sigma), 40 mM Na PIPES buffer pH 7.2 (Sigma), and 500 μg/mL lysolecithin (Calbiochem) was added. The samples were mixed by agitation and incubated at room temperature. Using a fluorescent plate reader (Model SPECTRAfluor Plus, Tecan), an initial reading (T=0) was made approximately 1-2 min after addition of the substrate solution, employing excitation at 485 nm and emission at 530 nm, to determine the background fluorescence of the control sample. After the 3 h incubation, the samples were read for fluorescence as above (T=3 h). Calculation: The Relative Fluorescence Unit values (RFU) were used to calculate the sample readings as follows: RFU(T=3H)−Control RFU(T=0)=Net RFU(T=3h) The activity of caspase cascade activation was determined by the ratio of the net RFU value for 3-(2-chlorophenyl)-6-(3,4-methylenedioxyphenyl)-7H-[1,2,4]triazolo[3,4-b][1,3,4]thiadiazine (Example P) or other test compound to that of control samples. The EC50 (nM) was determined by a sigmoidal dose-response calculation (Prism 3.0, GraphPad Software Inc.).

Counter-ions that a name gives are not always drawn. Where only a bound is given, the exact number is not on record here.

The EC50 is the concentration giving half of the maximal effect. A word on the GI50: it is the concentration that inhibits growth by half. A lower GI50 goes with more potent growth inhibition. For `COc1ccc(-c2nnc3n2N=C(c2ccc(C)cc2)CS3)c(OC)c1` [Example 15, 3-(2,4-Dimethoxyphenyl)-6-(4-methylphenyl)-7H-[1,2,4]triazolo[3,4-b][1,3,4]thiadiazine hydrobromide], the EC50 turned out to be 5 nM in experiment [1]; 8 nM in [2]; 8 nM in experiment [3]; 34 nM in [4]; 12 nM in experiment [5]; 7 nM in [9]. Also, the GI50 in experiment [6] was 10 nM; in experiment [7], 1 nM; in experiment [8] it was 4 nM; in experiment [10], 4 nM; in [11], 6 nM.
On to `COc1ccccc1-c1nnc2n1N=C(c1ccc(N3CCOCC3)cc1)CS2` [Example 25, 3-(2-Methoxyphenyl)-6-(4-morpholinophenyl)-7H-[1,2,4]triazolo[3,4-b][1,3,4]thiadiazine], for which the EC50 was 694 nM in [1]; 275 nM in experiment [2]; 1260 nM in experiment [3]; 612 nM in experiment [4]; 511 nM in experiment [5]; 321 nM in experiment [9]. In addition, the concentration for 50% growth inhibition (GI50) in [6] worked out at 1980 nM; in experiment [7], 105 nM; in [8], 317 nM; in experiment [10] it was 285 nM; in [11], 161 nM.
`COc1ccc(-c2nnc3n2N=C(c2ccc(N=[N+]=[N-])cc2)CS3)cc1OC` [Example 31, 6-(4-Azidophenyl)-3-(3,4-dimethoxyphenyl)-7H-[1,2,4]triazolo[3,4-b][1,3,4]thiadiazine]: the EC50 in [1] was 619 nM; in [2], 520 nM; in experiment [3], 5550 nM; in [4], 2390 nM; in [5], 534 nM; in experiment [9], 544 nM. Besides, the 50% growth inhibitory concentration (GI50) is 4250 nM in experiment [6]; 503 nM in [7]; 581 nM in experiment [8]; 6330 nM in experiment [10]; 1470 nM in experiment [11].
As for `CCN(CC)c1ccc(C2=Nn3c(nnc3-c3cc(OC)cc(OC)c3)SC2)cc1` [Example 26, 6-(4-Diethylaminophenyl)-3-(3,5-dimethoxyphenyl)-7H-[1,2,4]triazolo[3,4-b][1,3,4]thiadiazine], the EC50 in [1] was 114 nM; in experiment [2], 73 nM; in [3], 280 nM; in experiment [4], 297 nM; in [5], 154 nM; in experiment [9], 106 nM. Besides, the GI50 in experiment [6] is 20 nM; in [7] it was 20 nM; in experiment [8], 20 nM; in experiment [10], 17 nM; in experiment [11], 16 nM.
Turning to `COc1ccc(-c2nnc3n2N=C(c2ccc4c(c2)OCO4)CS3)cc1` [J, 3-(4-Methoxyphenyl)-6-(3,4-methylenedioxyphenyl)-7H-[1,2,4]triazolo[3,4-b][1,3,4]thiadiazine], the half-maximal effective concentration (EC50) is 2550 nM in experiment [1]; more than 1000 nM in [2]; more than 10000 nM in experiment [3]; 3270 nM in experiment [4]; more than 1000 nM in [5]; more than 10000 nM in experiment [9]. In addition, the EC50 in experiment [12] was 2930 nM.
Regarding `Clc1cccc(-c2nnc3n2N=C(c2ccc4c(c2)OCO4)CS3)c1` [S, 3-(3-Chlorophenyl)-6-(3,4-methylenedioxyphenyl)-7H-[1,2,4]triazolo[3,4-b][1,3,4]thiadiazine], the EC50 in [1] is 1630 nM; in [2], more than 1000 nM; in [3], more than 10000 nM; in [4], more than 10000 nM; in experiment [5], more than 1000 nM; in experiment [9], more than 10000 nM. Further, the concentration for a half-maximal effect (EC50) in experiment [12] is more than 10000 nM.
Consider `COc1cccc(-c2nnc3n2N=C(c2ccc(OC)c(OC)c2)CS3)c1` [Y, 3-(3-Methoxyphenyl)-6-(3,4-dimethoxyphenyl)-7H-[1,2,4]triazolo[3,4-b][1,3,4]thiadiazine], for which the EC50 was determined as 1360 nM in experiment [1]; 593 nM in experiment [2]; 3180 nM in experiment [3]; 4130 nM in experiment [4]; 735 nM in experiment [5]; 558 nM in experiment [9]. The concentration for a half-maximal effect (EC50) in experiment [12] is 2850 nM.
`CC(C)Oc1cccc(-c2nnc3n2N=C(c2ccc4c(c2)OCO4)CS3)c1` [Example R1, 3-(3-Isopropyloxyphenyl)-6-(3,4-methylenedioxyphenyl)-7H-[1,2,4]triazolo[3,4-b][1,3,4]thiadiazine]: the EC50 in experiment [1] was 5600 nM; in experiment [2], more than 1000 nM; in [3] it was more than 10000 nM; in [4], more than 10000 nM; in [5], more than 1000 nM; in experiment [9] it was more than 1000 nM. Also, the concentration for a half-maximal effect (EC50) in experiment [12] is more than 10000 nM.
On to `Clc1ccc(-c2nnc3n2N=C(c2ccc4c(c2)OCO4)CS3)c(Cl)c1` [Example I1, 3-(2,4-Dichlorophenyl)-6-(3,4-methylenedioxyphenyl)-7H-[1,2,4]triazolo[3,4-b][1,3,4]thiadiazine], for which the half-maximal effective concentration (EC50) in experiment [1] turned out to be 172 nM; in experiment [2] it was 150 nM; in experiment [3] it was 254 nM; in experiment [4], 278 nM; in [5], 171 nM; in [9], 221 nM. For the same compound, in [12], the EC50 is 1380 nM.

For the origin of these results see US20080045514A1 (Cytovia, Inc., priority 2006, published 2008).
